Measured values taken from ChEMBL document CHEMBL2396560, “Discovery of (R)-4-cyclopropyl-7,8-difluoro-5-(4-(trifluoromethyl)phenylsulfonyl)-4,5-dihydro-1H-pyrazolo[4,3-c]quinoline (ELND006) and (R)-4-cyclopropyl-8-fluoro-5-(6-(trifluoromethyl)pyridin-3-ylsulfonyl)-4,5-dihydro-2H-pyrazolo[4,3-c]quinoline (ELND007): metabolically stable γ-secretase …” (J Med Chem, 2013).
Values after ≈ are worked out from the molar mass of the structure shown.

How the values were obtained:
[1] = Plasma concentration in FVB mouse at 1 mg/kg, po at 3 hrs; assay type: ADME, organism-based; design: dose 1 mg/kg, route oral
[2] = Drug uptake in FVB mouse brain at 1 mg/kg, po at 3 hrs; assay type: ADME, organism-based; design: dose 1 mg/kg, route oral; settings: read-out: Drug uptake
Plasma [3] = test: AUC (0 to 3 hrs) in FVB mouse plasma at 10 mg/kg, po; assay type: ADME, organism-based; design: time < 3 hr, dose 10 mg/kg, route oral; settings: in vivo
Mus musculus [4] = test: Toxicity in FVB mouse assessed as thymus atrophy compound administered orally bid for 7 days; assay type: organism-based; settings: in vivo, po, 168 h
Brain [5] = test: AUC (0 to 3 hrs) in FVB mouse brain at 10 mg/kg, po; assay type: ADME, organism-based; design: time < 3 hr, dose 10 mg/kg, route oral; settings: in vivo
Liver microsomes [6] = test: Oxidative metabolism in human liver microsomes assessed as compound remaining; assay type: ADME, Microsome
Mus musculus [7] = test: Toxicity in FVB mouse assessed as effect on Hes-1 mRNA level in thymus at 3 mg/kg, po administered as single dose measured at 3 hrs; assay type: organism-based; design: dose 3 mg/kg, route oral; settings: in vivo
Brain [8] = test: AUC (0 to 3 hrs) in FVB mouse brain at 1 mg/kg, po; assay type: ADME, organism-based; design: time < 3 hr, dose 1 mg/kg, route oral; settings: in vivo
Homo sapiens [9] = test: Hepatic toxicity in po dosed healthy human administered as gelatin capsule; assay type: organism-based; settings: in vivo
[10] = Drug uptake in FVB mouse brain at 30 mg/kg, po at 3 hrs; assay type: ADME, organism-based; design: dose 30 mg/kg, route oral; settings: read-out: Drug uptake
Plasma [11] = test: AUC (0 to 3 hrs) in FVB mouse plasma at 1 mg/kg, po; assay type: ADME, organism-based; design: time < 3 hr, dose 1 mg/kg, route oral; settings: in vivo
Rattus norvegicus [12] = test: Hepatic toxicity in rat administered for 6 months as repeated-dosing; assay type: organism-based; settings: in vivo
[13] = Aqueous solubility of the compound; assay type: physicochemical; settings: buffer
Cynomolgus monkey = test: Hepatic toxicity in cynomolgus monkey administered for 1 year as repeated-dosing; assay type: organism-based, Macaca fascicularis; settings: in vivo
[14] = Systemic clearance in rat; assay type: ADME, organism-based; settings: in vivo
Liver [15] = test: Glucuronidation metabolism in mouse liver microsomes assessed as compound remaining; assay type: ADME, Microsome
[16] = Plasma concentration in FVB mouse at 3 mg/kg, po at 3 hrs; assay type: ADME, organism-based; design: dose 3 mg/kg, route oral
[17] = Plasma concentration in FVB mouse at 30 mg/kg, po at 3 hrs; assay type: ADME, organism-based; design: dose 30 mg/kg, route oral
Mus musculus [18] = test: Toxicity in FVB mouse assessed as effect on Hes-1 mRNA level in thymus at 30 mg/kg, po administered as single dose measured at 3 hrs; assay type: organism-based; design: dose 30 mg/kg, route oral; settings: in vivo
Homo sapiens [19] = test: Reduction in amyloid beta in CSF of po dosed healthy human administered as gelatin capsule measured after 5 hrs post administration; assay type: functional; design: scale not given: the % may be the effect or the level left
CHO [20] = test: Inhibition of gamma-secretase in CHO cells assessed expressing APPSw assessed as inhibition of amyloid beta(1 to x) secretion after overnight incubation by ELISA; assay type: cell-based; settings: Cricetulus griseus
Brain [21] = test: AUC (0 to 3 hrs) in FVB mouse brain at 3 mg/kg, po; assay type: ADME, organism-based; design: time < 3 hr, dose 3 mg/kg, route oral; settings: in vivo
Mus musculus [22] = test: Reduction in amyloid beta (x to 40) in FVB mouse cortex at 3 mg/kg, po administered as single dose measured at 3 hrs; assay type: functional; design: scale not given: the % may be the effect or the level left
Rattus norvegicus [23] = species on record: Rattus norvegicus; test: Systemic clearance in rat relative to hepatic blood flow; assay type: ADME, organism-based, Liver; settings: in vivo
Mus musculus [24] = test: Reduction in amyloid beta (x to 40) in FVB mouse cortex at 10 mg/kg, po administered as single dose measured at 3 hrs; assay type: functional; design: scale not given: the % may be the effect or the level left
Gamma-secretase [25] = test: Inhibition of partially purified human gamma-secretase-mediated cleavage of MBP-APPc125Sw fusion protein measured after overnight incubation by ELISA; assay type: protein-complex assay
Liver [26] = test: Oxidative metabolism in dog liver microsomes assessed as compound remaining; assay type: ADME, Canis lupus familiaris, Microsome
[27] = target: Gamma-secretase (Homo sapiens) (UniProt Q96BI3+Q9NZ42+Q8WW43+P49768+Q92542+P49810); test: Selctivity ratio of IC50 for partially purified human gamma-secretase-mediated cleavage of notch fusion protein to IC50 for partially purified human gamma-secretase-mediated cleavage of MBP-APPc125Sw fusion protein; assay type: protein-complex assay
[28] = Octanol-water partition co-efficient, log P of the compound by shake-flask method; assay type: physicochemical
[29] = Drug uptake in FVB mouse brain at 10 mg/kg, po at 3 hrs; assay type: ADME, organism-based; design: dose 10 mg/kg, route oral; settings: read-out: Drug uptake
Plasma [30] = test: AUC (0 to 3 hrs) in FVB mouse plasma at 3 mg/kg, po; assay type: ADME, organism-based; design: time < 3 hr, dose 3 mg/kg, route oral; settings: in vivo
Mus musculus [31] = test: Toxicity in FVB mouse assessed as effect on Hes-1 mRNA level in thymus at 10 mg/kg, po administered as single dose measured at 3 hrs; assay type: organism-based; design: dose 10 mg/kg, route oral; settings: in vivo
Liver [32] = test: Glucuronidation metabolism in dog liver microsomes assessed as compound remaining; assay type: ADME, Canis lupus familiaris, Microsome
Mus musculus [33] = test: Selectivity ratio of EC25 for Reduction in amyloid beta (x to 40) brain to EC25 for change in Hes-1 mRNA level in thymus in po dosed FVB mouse
Liver microsomes [34] = test: Oxidative metabolism in rat liver microsomes assessed as compound remaining; assay type: ADME, Microsome
Gamma-secretase [35] = test: Inhibition of partially purified human gamma-secretase-mediated cleavage of notch fusion protein measured after overnight incubation by ELISA; assay type: protein-complex assay
[36] = Drug uptake in FVB mouse brain at 3 mg/kg, po at 3 hrs; assay type: ADME, organism-based; design: dose 3 mg/kg, route oral; settings: read-out: Drug uptake
Liver [37] = test: Oxidative metabolism in mouse liver microsomes assessed as compound remaining; assay type: ADME, Microsome
Mus musculus [38] = test: Reduction in amyloid beta (x to 40) in FVB mouse cortex at 1 mg/kg, po administered as single dose measured at 3 hrs; assay type: functional; design: scale not given: the % may be the effect or the level left
Mus musculus [39] = test: Reduction in amyloid beta (x to 40) in FVB mouse cortex at 30 mg/kg, po administered as single dose measured at 3 hrs; assay type: functional; design: scale not given: the % may be the effect or the level left
Mus musculus [40] = test: Toxicity in FVB mouse assessed as goblet cell hyperplasia in intestine compound administered orally bid for 7 days; assay type: organism-based; settings: in vivo, po, 168 h
[41] = Plasma concentration in FVB mouse at 10 mg/kg, po at 3 hrs; assay type: ADME, organism-based; design: dose 10 mg/kg, route oral
Liver microsomes [42] = test: Glucuronidation metabolism in rat liver microsomes assessed as compound remaining; assay type: ADME, Microsome
CHO [43] = test: Inhibition of gamma-secretase in CHO cells assessed expressing NotchdeltaE assessed as inhibition of notch cleavage after overnight incubation by luciferase reporter gene assay; assay type: cell-based; settings: Cricetulus griseus
Liver microsomes [44] = test: Glucuronidation metabolism in human liver microsomes assessed as compound remaining; assay type: ADME, Microsome
CHO [45] = test: Selctivity ratio of ED50 for gamma-secretase in CHO cells assessed expressing NotchdeltaE assessed as inhibition of notch cleavage to ED50 for gamma-secretase in CHO cells assessed expressing APPSw assessed as inhibition of amyloid beta(1 to x) secretion; assay type: cell-based; settings: Cricetulus griseus
Mus musculus [46] = test: Reduction in amyloid beta (x to 40) in po dosed FVB mouse brain administered as single dose measured at 3 hrs; assay type: functional
Mus musculus [47] = test: Reduction in amyloid beta (x to 40) in FVB mouse cortex at 30 mg/kg, po administered as single dose measured at 6 hrs post administration; assay type: functional; design: scale not given: the % may be the effect or the level left

concentration at 3 h [1]: 31 nM
concentration at 3 h [2]: 120 nM
AUC (Plasma [3]): 0.68 µM
AUC (Brain [5]): 7 µM
Stability (Liver microsomes [6]): 80%
AUC (Brain [8]): 0.64 µM
concentration at 3 h [10]: 7200 nM
AUC (Plasma [11]): 0.19 µM
solubility [13]: 3 µg/mL (≈ 6.59 µM)
clearance [14]: 22 mL/min/kg
Stability (Liver [15]): 88%
concentration at 3 h [16]: 190 nM
concentration at 3 h [17]: 3000 nM
AUC (Brain [21]): 2.1 µM
CLH (Rattus norvegicus [23]): 40%
IC50 (Gamma-secretase [25]): 0.34 nM
Stability (Liver [26]): 75%
Ratio IC50 [27]: 19
logP [28]: 3.91
concentration at 3 h [29]: 2100 nM
AUC (Plasma [30]): 0.68 µM
Stability (Liver [32]): 90%
Stability (Liver microsomes [34]): 66%
IC50 (Gamma-secretase [35]): 6.6 nM
concentration at 3 h [36]: 520 nM
Stability (Liver [37]): 72%
concentration at 3 h [41]: 900 nM
Stability (Liver microsomes [42]): 90%
Stability (Liver microsomes [44]): 90%
SMILES: O=S(=O)(c1ccc(C(F)(F)F)cc1)N1c2cc(F)c(F)cc2-c2n[nH]cc2[C@H]1C1CC1
Activity (Mus musculus [4]): Non-toxic
Activity (Mus musculus [7]): -17%
Activity (Homo sapiens [9]): Toxic
Activity (Rattus norvegicus [12]): Non-toxic
Activity (Cynomolgus monkey): Non-toxic
Activity (Mus musculus [18]): -25%
Activity (Homo sapiens [19]): 31%
ED50 (CHO [20]): 1.1 nM
Activity (Mus musculus [22]): 48%
Activity (Mus musculus [24]): 61%
Activity (Mus musculus [31]): -14%
Selectivity ratio (Mus musculus [33]): 57
Activity (Mus musculus [38]): 32%
Activity (Mus musculus [39]): 64%
Activity (Mus musculus [40]): Non-toxic
ED50 (CHO [43]): 86 nM
Ratio ED50 (CHO [45]): 78
EC25(unbound) (Mus musculus [46]): 0.034 nM
Activity (Mus musculus [47]): 82%
